Results as given in US11215608B2, “Methods of determining cellular chemosensitivity” (Dana-Farber Cancer Institute, Inc., priority 2006, dated 2022).
“And” between values parts separate entries of the source, which are not always exact repeats. Identical values can stand only once. Like-named read-outs stand apart in the source and are kept apart here.

How the values were obtained:
[1] = system: SU-DHL4, SU-DHL6, SU-DHL8, SU-DHL 10; experiment: Lymphoma cell line sensitivity to agents; format: cell-based; conditions: four lymphoma cell lines compared
Description: Only cells that are dependent on BCL-2 for survival are predicted to respond to BCL-2 antagonists like ABT-737. […] To test this, cells were treated with vincristine.

BCL-2 = BCL-2 (Homo sapiens, UniProt P10415); conditions: cited from earlier work
BCL-2, sequence (P10415 whole entry, species assumed): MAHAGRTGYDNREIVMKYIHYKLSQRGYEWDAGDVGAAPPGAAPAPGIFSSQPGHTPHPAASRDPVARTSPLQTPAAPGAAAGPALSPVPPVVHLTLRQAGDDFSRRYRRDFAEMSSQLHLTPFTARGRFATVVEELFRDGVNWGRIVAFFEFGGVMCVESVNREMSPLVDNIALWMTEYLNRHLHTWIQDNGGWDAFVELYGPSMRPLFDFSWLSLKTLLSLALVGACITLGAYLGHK

BCL-XL = BCL-XL (Homo sapiens, UniProt Q07817); conditions: cited from earlier work
BCL-XL, sequence (Q07817 whole entry, species assumed): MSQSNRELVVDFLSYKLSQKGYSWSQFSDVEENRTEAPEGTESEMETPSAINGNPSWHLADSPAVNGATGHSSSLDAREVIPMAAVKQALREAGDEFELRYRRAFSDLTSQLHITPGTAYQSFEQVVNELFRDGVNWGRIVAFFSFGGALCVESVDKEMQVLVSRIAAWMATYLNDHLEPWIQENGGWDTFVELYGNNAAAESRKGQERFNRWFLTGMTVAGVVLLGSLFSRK

FL5.12 cells = experiment: FL5.12 cell survival by Annexin V; format: cell-based, murine
Description: (§1) Cells were stained with fluorescent conjugates of Annexin-V (BioVision) and propidium iodide (PI) and analyzed on a FACSCalibur machine (Becton-Dickinson).
FL5.12 cells were cultured as described previously in Iscove's modified Dulbecco's medium, 10% fetal bovine serum, 1000 ug/ml G418 with or without IL-3 provided by 10% WEHI-3B supplement (supernatant of IL-3 secreting WEHI-3B cells). FL5.12 cells were stably transfected with a vector containing a neomycin resistance construct and either human BCL-2 cDNA (FL5.12-BCL-2) or no insert (wt). 2B4 cells were cultured in RPMI 1640 supplemented with 10% fetal bovine serum, 100 U/ml penicillin, 100 ug/ml streptomycin, 10 uM non-essential amino acids and 8 ul/L betamercaptoethanol. Stably transfected 2B4 cells were isolated after transfection with pLZR-GFP retroviral vector or vector with Flag-Mc1-1 (kind gift from Joe Opferman).
In order to test whether mitochondrial dependence on individual antiapoptotic protein function can be correlated with cellular behavior, cellular models of defined antiapoptotic dependence were investigated. First, it was determined if cellular requirement for BCL-2 for cellular survival correlates with the BCL-2 signature of mitochondrial sensitivity to sensitizer BH3 domains found in FIG. 1B. The pro-lymphocytic murine FL5.12 cell line requires IL-3 to maintain survival. […]

BCL-2:BIM complex [2] = target: T1, BCL-2:BIM complex (Homo sapiens, UniProt P10415); experiment: Displacement of BIM from immunoprecipitated BCL-2, detergent-free; format: binding; conditions: 1 μM, detergent-free conditions
T1 construct: A BCL-2 antibody was used to immunoprecipitate BCL-2 from CLL lysates from four independent patient samples; endogenous in cells; host or cells: freshly isolated primary human CLL cells
T1 sequence (P10415 whole entry, one chain of several): as the sequence (P10415 whole entry, species assumed) above

BCL-w = target: T2, BCL-w (Homo sapiens, UniProt Q92843); conditions: cited from earlier work
T2 sequence (Q92843 1-193): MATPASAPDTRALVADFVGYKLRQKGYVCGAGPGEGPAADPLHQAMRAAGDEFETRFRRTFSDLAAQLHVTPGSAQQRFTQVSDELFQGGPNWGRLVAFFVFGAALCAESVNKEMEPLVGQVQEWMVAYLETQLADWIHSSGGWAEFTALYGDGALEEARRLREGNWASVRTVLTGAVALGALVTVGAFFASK

BCL-2:BIM complex [3] = target: T1, BCL-2:BIM complex; experiment: BCL-2 immunoprecipitation from treated primary CLL cells; format: cell-based; conditions: 100 nM, 24 hours
2B4 cells = experiment: 2B4 cell viability with dexamethasone by Annexin V; format: cell-based, murine; conditions: 24 hours
Description: as §1

[4] = system: peripheral blood mononuclear cells (PBMC); experiment: Annexin-V death assay of normal PBMC; format: cell-based; conditions: Homo sapiens, 24 hours, read-out: EC50, PBMC from normal donors
Description: as §1
(§2) 15 ml of blood in heparin treated tubes was obtained from each anonymous CLL patient and processed without freezing. Equal volume of media (RPMI medium, 10% […], supplemented with […] and 10 mg/ml transferrin) was mixed with each sample and CLL cells isolated by centrifugation through Ficoll-PAQUE Plus (Amersham). Cells were washed twice in media and cultured at a density of 2.0×10^6 cells/ml for up to 48 hours. Samples for FIG. 11A were obtained from 24 consecutive patients identified with WBC >50,000/μl. All guidelines and regulations were followed in accordance with IRB protocols #99-224 (Dana-Farber Cancer Institute). Normal PBMC's were obtained from tubing discarded following platelet donation by anonymous normal donors and processed as above, except cultured without insulin and transferrin.
CLL cells have shown sensitivity to ABT-737, so they were selected as a possible initial cancer model of BCL-2 dependence (Oltersdorf et al., 2005). Freshly isolated primary CLL cells were incubated with ABT-737 or negative control enantiomer. After 48 hours, death was assessed using Annexin-V staining. […] Directly targeting the apoptotic machinery might be expected to induce apoptosis rapidly.

CLL cells = experiment: Annexin-V death assay of freshly isolated primary CLL cells; format: cell-based, human; conditions: 48 hours
Description: as §1, §2
Experimental replicates were performed using lysates or mitochondria from different CLL samples. In main body, where a P value is given, it was obtained by using a two-tailed Students t-test, and P<0.05 was considered statistically significant. GraphPad Prism software was used to determine EC50 values by non-linear dose-response curve fitting and to perform Mann-Whitney nonparametric testing in Table 5.
Freshly isolated primary CLL cells were incubated with ABT-737 or negative control enantiomer. After 48 hours, death was assessed using Annexin-V staining.

CLL mitochondria = experiment: Cytochrome c release from CLL mitochondria; format: biochemical, human; conditions: peptides or compounds 100 μM

## CN(C)CC[C@H](CSc1ccccc1)Nc1ccc(S(=O)(=O)NC(=O)c2ccc(N3CCN(Cc4ccccc4-c4ccc(Cl)cc4)CC3)cc2)cc1[N+](=O)[O-] [ABT-737]
[1]
  cell sensitivity to the agent: BH3 profiling accurately predicted response to ABT-737
BCL-2
  affinity to BCL-2: sub-nanomolar range
BCL-XL
  affinity to BCL-XL: sub-nanomolar range
FL5.12 cells; IL-3 replete wt FL5.12 cells
  toxicity: non-toxic
FL5.12 cells; IL-3 starved FL5.12-BCL-2 cells, 24 hours
  cell death: induced cell death in the IL-3 starved
BCL-2:BIM complex [2]
  displacement of BIM from BCL-2 into the supernatant: displaces BIM from BCL-2 into the supernatant
BCL-w
  affinity to BCL-w: sub-nanomolar range
BCL-2:BIM complex [3]
  amount of BIM bound to BCL-2: causes a dramatic reduction in the amount of BIM bound to BCL-2
2B4 cells; BCL-2-protected dexamethasone-treated 2B4 cells
  effect on cell survival: very sensitive to ABT-737
2B4 cells; MCL-1-protected dexamethasone-treated 2B4 cells
  effect on cell survival: has no effect
[4]
  EC50: > 1000 nM
CLL cells; CLL cells of one patient per row (V1-V24), read-out: EC50 ABT-737
  EC50: 3.6 nM and 2.1 nM and 3.1 nM and 1.9 nM and 4.1 nM and 8.7 nM and 5.8 nM and 6 nM and 3.3 nM and 6.4 nM and 2.9 nM and 9.4 nM and 2.3 nM and 4.8 nM and 4 nM and 7.4 nM and 6.1 nM and 7 nM and 3.2 nM and 3.5 nM
CLL cells; Homo sapiens, CLL cell, 48 h, twenty-four CLL samples, read-out: mean EC50, apoptosis of CLL cells
  EC50: 4.5 nM
CLL cells; Homo sapiens, CLL cell, 48 h, twenty-four CLL samples, read-out: range of EC50 over CLL samples
  EC50: 1.9 to 9.4 nM
CLL mitochondria
  cytochrome c release: also induced cytochrome c release
